Data reported in PubChem BioAssay AID192 (DTP/NCI, 2004).
“And” between values parts separate entries of the source, which are not always exact repeats. Equal entries are not always repeated. Inconclusive results and toxic doses are left out.

Tested on: BDF1 mice, B16 melanoma ip, median survival T/C
Assay: NCI In Vivo Anticancer Drug Screen. Data for tumor model B16 Melanoma (intraperitoneal) in B6D2F1 (BDF1) mice
Conditions: endpoint: median survival time, higher = longer survival
Summary of the method: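 Each result divides a survival or tumor-size measurement in the compound-treated group by the same measurement in the vehicle group.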

[1] = dose: 3.0 mg/kg/injection, schedule: Q01DX009 (ip), vehicle: Klucel (hydroxypropylcellulose) (HPC)
[2] = dose: 25.0 mg/kg/injection, schedule: Q01DX009 (ip), vehicle: saline with Tween-80
[3] = dose: 50.0 mg/kg/injection, schedule: Q01DX009 (ip), vehicle: saline with Tween-80
[4] = dose: 100.0 mg/kg/injection, schedule: Q01DX009 (ip), vehicle: saline with Tween-80
[5] = dose: 100.0 mg/kg/injection, schedule: Q01DX009 (ip), vehicle: Klucel (hydroxypropylcellulose) (HPC)
[6] = dose: 50.0 mg/kg/injection, schedule: Q01DX009 (ip), vehicle: Klucel (hydroxypropylcellulose) (HPC)
[7] = dose: 200.0 mg/kg/injection, schedule: Q01DX009 (ip), vehicle: Klucel (hydroxypropylcellulose) (HPC)
[8] = dose: 200.0 mg/kg/injection, schedule: Q01DX009 (ip), vehicle: saline with Tween-80

Cc1c(CCl)c(C)c(CCl)c(C)c1CCl
T/C [1]: 102 % of control
T/C (dose: 6.0 mg/kg/injection, schedule: Q01DX009 (ip), vehicle: Klucel (hydroxypropylcellulose) (HPC)): 100 % of control
T/C (dose: 12.0 mg/kg/injection, schedule: Q01DX009 (ip), vehicle: Klucel (hydroxypropylcellulose) (HPC)): 100 % of control

C[C@H]1C/C=C/[C@H]2[C@@H]3O[C@]3(C)[C@@H](C)[C@H]3[C@H](Cc4ccccc4)NC(=O)[C@]32OC(=O)O/C=C/[C@@](C)(O)C1=O
T/C (dose: 1.25 mg/kg/injection, schedule: Q01DX009 (ip), vehicle: Klucel (hydroxypropylcellulose) (HPC)): 86 % of control
T/C (dose: 2.5 mg/kg/injection, schedule: Q01DX009 (ip), vehicle: Klucel (hydroxypropylcellulose) (HPC)): 92 % of control
T/C (dose: 10.0 mg/kg/injection, schedule: Q01DX009 (ip), vehicle: Klucel (hydroxypropylcellulose) (HPC)): 89 % of control

O=C(CC(O)(C(F)(F)Cl)C(F)(F)Cl)c1ccco1
T/C [2]: 100 % of control
T/C [3]: 100 % of control
T/C [4]: 105 % of control

O=c1[nH]/c(=C\c2ccc3c(c2)OCO3)c(=O)[nH]/c1=C\c1ccc2c(c1)OCO2
T/C (dose: 12.5 mg/kg/injection, schedule: Q01DX009 (ip), vehicle: carboxymethylcellulose (CMC)): 113 % of control
T/C (dose: 25.0 mg/kg/injection, schedule: Q01DX009 (ip), vehicle: carboxymethylcellulose (CMC)): 100 % of control
T/C (dose: 50.0 mg/kg/injection, schedule: Q01DX009 (ip), vehicle: carboxymethylcellulose (CMC)): 106 % of control
T/C [5]: 86 % of control

C[CH2][Pb]([CH2]C)([CH2]C)[O]C(=O)CBr
T/C (dose: 0.75 mg/kg/injection, schedule: Q01DX009 (ip), vehicle: Klucel (hydroxypropylcellulose) (HPC)): 100 % of control
T/C (dose: 1.5 mg/kg/injection, schedule: Q01DX009 (ip), vehicle: Klucel (hydroxypropylcellulose) (HPC)): 112 % of control
T/C [1]: 105 % of control and 113 % of control

O=C(O)C(Cl)Cc1cnc[nH]1 (stereo not given)
T/C (dose: 50.0 mg/kg/injection, schedule: Q01DX009 (ip), vehicle: saline): 111 % of control
T/C (dose: 100.0 mg/kg/injection, schedule: Q01DX009 (ip), vehicle: saline): 111 % of control
T/C (dose: 200.0 mg/kg/injection, schedule: Q01DX009 (ip), vehicle: saline): 112 % of control

OCCN1CCCN(CCCN2c3ccccc3Sc3ccc(C(F)(F)F)cc32)CC1
T/C (dose: 0.14 mg/kg/injection, schedule: Q04DX003 (ip), vehicle: saline): 108 % of control
T/C (dose: 0.29 mg/kg/injection, schedule: Q04DX003 (ip), vehicle: saline): 100 % of control
T/C (dose: 0.58 mg/kg/injection, schedule: Q01DX009 (ip), vehicle: saline): 98 % of control
T/C (dose: 0.58 mg/kg/injection, schedule: Q04DX003 (ip), vehicle: saline): 99 % of control
T/C (dose: 1.17 mg/kg/injection, schedule: Q01DX009 (ip), vehicle: saline): 98 % of control
T/C (dose: 1.17 mg/kg/injection, schedule: Q04DX003 (ip), vehicle: saline): 104 % of control
T/C (dose: 2.34 mg/kg/injection, schedule: Q01DX009 (ip), vehicle: saline): 96 % of control
T/C (dose: 2.34 mg/kg/injection, schedule: Q04DX003 (ip), vehicle: saline): 105 % of control and 116 % of control
T/C (dose: 4.68 mg/kg/injection, schedule: Q01DX009 (ip), vehicle: saline): 90 % of control
T/C (dose: 4.68 mg/kg/injection, schedule: Q04DX003 (ip), vehicle: saline): 122 % of control
T/C (dose: 9.37 mg/kg/injection, schedule: Q04DX003 (ip), vehicle: saline): 119 % of control

COC(=O)C(CSCc1ccccc1)NC(=O)OCc1ccccc1 (stereo not given)
T/C [6]: 87 % of control

COc1cc(NCc2ccc3nc(N)nc(N)c3c2C)cc(OC)c1OC
T/C (dose: 0.62 mg/kg/injection, schedule: Q01DX009 (ip), vehicle: sodium bicarbonate): 104 % of control
T/C (dose: 1.25 mg/kg/injection, schedule: Q01DX009 (ip), vehicle: sodium bicarbonate): 101 % of control and 117 % of control
T/C (dose: 2.5 mg/kg/injection, schedule: Q01DX009 (ip), vehicle: sodium bicarbonate): 107 % of control and 124 % of control
T/C (dose: 5.0 mg/kg/injection, schedule: Q01DX009 (ip), vehicle: sodium bicarbonate): 124 % of control
T/C (dose: 10.0 mg/kg/injection, schedule: Q01DX009 (ip), vehicle: sodium bicarbonate): 155 % of control
T/C (dose: 20.0 mg/kg/injection, schedule: Q01DX009 (ip), vehicle: sodium bicarbonate): 150 % of control and 164 % of control

CC(C)C[CH2][Pb]([Cl])([CH2]CC(C)C)[CH2]CC(C)C
T/C (dose: 0.06 mg/kg/injection, schedule: Q01DX009 (ip), vehicle: saline): 95 % of control
T/C (dose: 0.12 mg/kg/injection, schedule: Q01DX009 (ip), vehicle: Klucel (hydroxypropylcellulose) (HPC)): 100 % of control
T/C (dose: 0.12 mg/kg/injection, schedule: Q01DX009 (ip), vehicle: saline): 104 % of control
T/C (dose: 0.25 mg/kg/injection, schedule: Q01DX009 (ip), vehicle: saline): 96 % of control
T/C (dose: 0.5 mg/kg/injection, schedule: Q01DX009 (ip), vehicle: Klucel (hydroxypropylcellulose) (HPC)): 93 % of control
T/C (dose: 0.5 mg/kg/injection, schedule: Q01DX009 (ip), vehicle: saline): 100 % of control
T/C (dose: 1.0 mg/kg/injection, schedule: Q01DX009 (ip), vehicle: Klucel (hydroxypropylcellulose) (HPC)): 89 % of control
T/C (dose: 1.0 mg/kg/injection, schedule: Q01DX009 (ip), vehicle: saline): 104 % of control
T/C (dose: 2.0 mg/kg/injection, schedule: Q01DX009 (ip), vehicle: saline): 101 % of control
T/C (dose: 4.0 mg/kg/injection, schedule: Q01DX009 (ip), vehicle: saline): 98 % of control
T/C (dose: 8.0 mg/kg/injection, schedule: Q01DX009 (ip), vehicle: saline): 94 % of control

CS(=O)(=O)Nc1ccc(C(=O)O)cc1
T/C [5]: 100 % of control
T/C [7]: 102 % of control

FC(F)(F)c1cc(CN(CCCl)CCCl)cc(C(F)(F)F)c1
T/C (dose: 12.5 mg/kg/injection, schedule: Q01DX009 (ip), vehicle: saline): 97 % of control
T/C (dose: 25.0 mg/kg/injection, schedule: Q01DX009 (ip), vehicle: saline): 92 % of control

CCCCCCCCCCCC[N+](C)(C)C (tested in a mixture with another compound)
T/C (dose: 3.5 mg/kg/injection, schedule: Q01DX009 (ip), vehicle: saline): 98 % of control
T/C (dose: 7.0 mg/kg/injection, schedule: Q01DX009 (ip), vehicle: saline): 86 % of control
T/C (dose: 14.0 mg/kg/injection, schedule: Q01DX009 (ip), vehicle: saline): 90 % of control

CN1C(=O)CCS(=O)(=O)C1c1ccc(Cl)c(Cl)c1 (stereo not given)
T/C (dose: 0.39 mg/kg/injection, schedule: Q01DX009 (ip), vehicle: Klucel (hydroxypropylcellulose) (HPC)): 103 % of control
T/C (dose: 0.78 mg/kg/injection, schedule: Q01DX009 (ip), vehicle: Klucel (hydroxypropylcellulose) (HPC)): 87 % of control
T/C (dose: 1.56 mg/kg/injection, schedule: Q01DX009 (ip), vehicle: Klucel (hydroxypropylcellulose) (HPC)): 109 % of control and 116 % of control
T/C (dose: 3.12 mg/kg/injection, schedule: Q01DX009 (ip), vehicle: Klucel (hydroxypropylcellulose) (HPC)): 111 % of control and 118 % of control
T/C (dose: 6.25 mg/kg/injection, schedule: Q01DX009 (ip), vehicle: Klucel (hydroxypropylcellulose) (HPC)): 103 % of control and 111 % of control
T/C (dose: 12.5 mg/kg/injection, schedule: Q01DX009 (ip), vehicle: Klucel (hydroxypropylcellulose) (HPC)): 97 % of control
T/C [6]: 90 % of control

CN(C)S(=O)(=O)C(C)(C)c1ccccc1
T/C [3]: 90 % of control
T/C [4]: 93 % of control
T/C [8]: 95 % of control

Cc1c(N=O)c(=O)n(-c2ccccc2)n1C
T/C (dose: 100.0 mg/kg/injection, schedule: Q04DX003 (ip), vehicle: Klucel (hydroxypropylcellulose) (HPC)): 100 % of control
T/C (dose: 200.0 mg/kg/injection, schedule: Q04DX003 (ip), vehicle: Klucel (hydroxypropylcellulose) (HPC)): 100 % of control
T/C (dose: 400.0 mg/kg/injection, schedule: Q04DX003 (ip), vehicle: Klucel (hydroxypropylcellulose) (HPC)): 106 % of control

CC(C)C[C@H](NC(=O)[C@@H](O)[C@H](N)Cc1ccc(O)cc1)C(=O)O
T/C (dose: 0.05 mg/kg/injection, schedule: Q01DX009 (oral), vehicle: saline): 97 % of control
T/C (dose: 0.5 mg/kg/injection, schedule: Q01DX009 (oral), vehicle: saline): 97 % of control
T/C (dose: 5.0 mg/kg/injection, schedule: Q01DX009 (oral), vehicle: saline): 101 % of control

Cn1nc(N)c2ncc(-c3ccc(Cl)cc3)nc21
T/C (dose: 12.5 mg/kg/injection, schedule: Q01DX009 (ip), vehicle: saline with Tween-80): 91 % of control
T/C [2]: 90 % of control

CC(=O)NCc1cc(CNC(C)=O)c(C)cc1C
T/C [4]: 88 % of control
T/C [8]: 86 % of control

O=CNC(c1ccccc1)(c1ccccc1)c1ccccc1
T/C [5]: 97 % of control
T/C [7]: 94 % of control
T/C (dose: 400.0 mg/kg/injection, schedule: Q01DX009 (ip), vehicle: Klucel (hydroxypropylcellulose) (HPC)): 94 % of control

Cn1c2c(c3ccccc3c1=O)C(=O)c1ccccc1-2
T/C [2]: 97 % of control
T/C [3]: 89 % of control
